Molecular target: T1, ATM (Homo sapiens, UniProt Q13315)
T1 construct: detecting phosphorylation of Chk2 in a human non-small cell lung cancer cell line NCI-H460 (ATCC company); host or cells: NCI-H460 human non-small cell lung cancer cells
Assay: ATM inhibition test (phosphorylation of Chk2 generated by ionizing radiation, AlphaScreen SureFire)
Type: cell-based
Details: ATM inhibitory activity, phosphorylated Chk2 in NCI-H460 cells, ionizing radiation 8Gy, 1 hour after test compound treatment
Method in brief: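 Phosphorylated Chk2 read by AlphaScreen SureFire in human non-small cell lung cancer NCI-H460 cells, 1 hour after 8Gy ionizing radiation at 37° C. Compound added 1 hour before irradiation. Percent inhibition normalised between irradiated and non-irradiated drug-untreated signals.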

T1 sequence (Q13315 whole entry): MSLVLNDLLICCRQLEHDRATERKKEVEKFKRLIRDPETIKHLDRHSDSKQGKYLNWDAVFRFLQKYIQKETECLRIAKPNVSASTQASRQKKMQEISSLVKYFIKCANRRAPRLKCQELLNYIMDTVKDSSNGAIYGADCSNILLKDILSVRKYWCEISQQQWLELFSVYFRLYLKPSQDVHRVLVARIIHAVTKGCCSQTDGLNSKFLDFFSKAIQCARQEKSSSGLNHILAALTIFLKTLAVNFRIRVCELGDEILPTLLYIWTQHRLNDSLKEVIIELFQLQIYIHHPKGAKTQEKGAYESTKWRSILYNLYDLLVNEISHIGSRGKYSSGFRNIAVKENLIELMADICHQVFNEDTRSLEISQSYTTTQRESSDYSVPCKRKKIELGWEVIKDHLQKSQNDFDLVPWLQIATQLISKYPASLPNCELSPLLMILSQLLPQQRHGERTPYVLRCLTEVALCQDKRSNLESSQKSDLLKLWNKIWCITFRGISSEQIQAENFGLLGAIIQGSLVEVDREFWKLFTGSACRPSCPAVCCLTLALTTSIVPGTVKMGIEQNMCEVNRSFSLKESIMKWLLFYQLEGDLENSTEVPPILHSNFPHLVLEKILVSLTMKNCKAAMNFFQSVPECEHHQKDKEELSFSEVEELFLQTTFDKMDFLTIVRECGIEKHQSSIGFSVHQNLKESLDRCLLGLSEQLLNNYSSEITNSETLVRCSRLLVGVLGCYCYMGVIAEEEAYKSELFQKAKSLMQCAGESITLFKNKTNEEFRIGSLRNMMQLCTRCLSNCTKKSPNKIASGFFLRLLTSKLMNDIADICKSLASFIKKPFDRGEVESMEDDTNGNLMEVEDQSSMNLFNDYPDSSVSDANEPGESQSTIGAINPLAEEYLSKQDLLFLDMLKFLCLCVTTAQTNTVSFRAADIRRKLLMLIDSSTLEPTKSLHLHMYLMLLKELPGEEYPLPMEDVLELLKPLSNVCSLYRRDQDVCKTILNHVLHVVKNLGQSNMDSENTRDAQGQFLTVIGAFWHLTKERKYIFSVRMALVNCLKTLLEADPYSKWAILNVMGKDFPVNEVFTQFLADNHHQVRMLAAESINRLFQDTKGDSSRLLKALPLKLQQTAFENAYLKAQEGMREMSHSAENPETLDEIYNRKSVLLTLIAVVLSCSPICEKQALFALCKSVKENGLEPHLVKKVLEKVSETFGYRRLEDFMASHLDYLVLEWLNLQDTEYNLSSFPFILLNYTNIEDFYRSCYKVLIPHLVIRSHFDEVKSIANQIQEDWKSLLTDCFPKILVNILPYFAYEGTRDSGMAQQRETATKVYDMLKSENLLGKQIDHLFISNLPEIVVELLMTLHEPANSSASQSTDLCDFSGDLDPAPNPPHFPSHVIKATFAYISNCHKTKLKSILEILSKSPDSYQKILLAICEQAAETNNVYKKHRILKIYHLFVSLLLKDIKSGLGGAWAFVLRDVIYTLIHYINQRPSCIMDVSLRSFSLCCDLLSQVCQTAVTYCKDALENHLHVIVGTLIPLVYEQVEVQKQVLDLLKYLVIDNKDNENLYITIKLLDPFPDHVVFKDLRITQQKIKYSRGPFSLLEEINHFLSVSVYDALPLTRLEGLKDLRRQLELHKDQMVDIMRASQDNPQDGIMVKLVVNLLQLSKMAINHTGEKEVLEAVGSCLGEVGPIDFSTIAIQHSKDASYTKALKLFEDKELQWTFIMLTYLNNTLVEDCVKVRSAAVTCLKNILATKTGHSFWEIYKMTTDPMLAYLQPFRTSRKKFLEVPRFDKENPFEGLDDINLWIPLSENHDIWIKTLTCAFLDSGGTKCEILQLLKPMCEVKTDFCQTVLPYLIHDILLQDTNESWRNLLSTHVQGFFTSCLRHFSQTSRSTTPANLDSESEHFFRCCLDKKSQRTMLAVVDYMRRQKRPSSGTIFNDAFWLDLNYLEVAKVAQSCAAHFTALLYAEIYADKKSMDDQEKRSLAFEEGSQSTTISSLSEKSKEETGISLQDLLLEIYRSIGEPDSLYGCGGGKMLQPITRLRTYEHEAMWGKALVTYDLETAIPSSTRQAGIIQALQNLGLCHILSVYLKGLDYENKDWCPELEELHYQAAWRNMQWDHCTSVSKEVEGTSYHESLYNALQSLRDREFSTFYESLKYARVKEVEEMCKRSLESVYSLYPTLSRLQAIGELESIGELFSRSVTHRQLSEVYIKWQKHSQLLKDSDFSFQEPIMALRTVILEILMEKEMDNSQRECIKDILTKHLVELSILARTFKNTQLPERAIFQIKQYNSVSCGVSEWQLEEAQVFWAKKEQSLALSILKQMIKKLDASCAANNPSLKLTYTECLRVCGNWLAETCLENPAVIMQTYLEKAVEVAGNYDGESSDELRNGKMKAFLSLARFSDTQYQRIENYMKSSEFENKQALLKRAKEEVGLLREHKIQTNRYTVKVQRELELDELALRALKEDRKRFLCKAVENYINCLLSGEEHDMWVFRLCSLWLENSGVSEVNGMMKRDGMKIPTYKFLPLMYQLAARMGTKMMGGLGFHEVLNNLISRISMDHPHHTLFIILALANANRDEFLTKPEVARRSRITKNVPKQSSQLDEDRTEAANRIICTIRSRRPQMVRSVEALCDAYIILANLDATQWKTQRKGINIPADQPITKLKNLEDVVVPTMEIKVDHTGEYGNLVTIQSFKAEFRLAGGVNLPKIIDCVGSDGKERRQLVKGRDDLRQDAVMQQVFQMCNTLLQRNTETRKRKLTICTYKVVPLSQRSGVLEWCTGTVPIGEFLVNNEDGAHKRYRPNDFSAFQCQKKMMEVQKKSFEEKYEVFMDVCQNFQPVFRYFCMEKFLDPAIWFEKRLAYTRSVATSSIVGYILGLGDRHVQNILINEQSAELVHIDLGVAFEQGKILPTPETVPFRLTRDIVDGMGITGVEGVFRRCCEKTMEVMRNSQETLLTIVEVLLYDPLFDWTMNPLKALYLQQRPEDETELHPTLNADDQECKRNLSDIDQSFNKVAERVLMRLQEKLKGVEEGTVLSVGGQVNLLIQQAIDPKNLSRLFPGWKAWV

Row | Compound | IC50 [nM]
1 | O=c1cc(N2CCOCC2)cc(-c2cccc3c2Sc2ccc(N4CC4CF)cc2S3)[nH]1 (stereo not drawn) [Example 1-40, 6-(7-(2-(fluoromethyl)aziridin-1-yl)thianthren-1-yl)-4-morpholinopyridin-2(1H)-one] | 100 to 500

Same assay, conditions: phosphorylated Chk2 in NCI-H460 cells, ionizing radiation 8Gy, 1 hour after test compound treatment; read-out: ATM inhibitory activity

Row | IC50 [nM] | Compound
2 | 100 to 500 | O=c1cc(N2CCOCC2)cc(-c2cccc3c2Oc2ccc(NC4CCN(Cc5cncc(F)c5)CC4)cc2C3)[nH]1 [Example 2-28-18, 6-(7-((1-((5-Fluoropyridin-3-yl)methyl)piperidin-4-yl)amino)-9H-xanthen-4-yl)-4-morpholino pyridin-2(1H)-one]
3 | 500 to 2000 | CN(C)CC(=O)Nc1ccc2c(c1)Sc1cccc(-c3cc(N4CCOCC4)cc(=O)[nH]3)c1S2 [Example 1-7-1, 2-(dimethylamino)-N-(6-(4-morpholino-6-oxo-1,6-dihydropyridin-2-yl)thianthren-2-yl)acetamide]
4 | 100 to 500 | Cc1csc(CNc2ccc3c(c2)Sc2cccc(-c4cc(N5CCOCC5)cc(=O)[nH]4)c2S3)c1 [Example 1-12-58, 6-(7-(((4-Methylthiophen-2-yl)methyl)amino)thianthren-1-yl)-4-morpholino pyridin-2 (1H)-one]
5 | 100 to 500 | CC(CN1CCN(Cc2ccncc2)CC1)Nc1ccc2c(c1)Sc1cccc(-c3cc(N4CCOCC4)cc(=O)[nH]3)c1S2 (stereo not drawn) [Example 1-15-4, 4-Morpholino-6-(7-((1-(4-(pyridin-4-ylmethyl)piperazin-1-yl)propan-2-yl)amino)thianthren-1-yl)pyridin-2(1H)-one]
6 | 100 to 500 | O=c1cc(N2CCOCC2)cc(-c2cccc3c2Oc2ccc(NCc4cccnc4)cc2CC3)[nH]1 [Example 2-51-2, 4-Morpholino-6-(8-((pyridin-3-ylmethyl)amino)-10,11-dihydrodibenz[b,f]oxepin-4-yl)pyridin-2(1H)-one]
7 | 100 to 500 | Cc1ccc(CNc2ccc3c(c2)Sc2cccc(-c4cc(N5CCOCC5)cc(=O)[nH]4)c2S3)s1 [Example 1-12-57, 6-(7-(((5-Methylthiophen-2-yl)methyl)amino)thianthren-1-yl)-4-morpholino pyridin-2 (1H)-one]
8 | 100 to 500 | CCOC(=O)C(C)Nc1ccc2c(c1)Cc1cccc(-c3cc(N4CCOCC4)cc(=O)[nH]3)c1O2 (stereo not drawn) [Example 2-14-72, Ethyl 2-((5-(4-morpholino-6-oxo-1,6-dihydropyridin-2-yl)-9H-xanthen-2-yl)amino) propanoate]
9 | 100 to 500 | COc1ncc(C(C)Nc2ccc3c(c2)Sc2cccc(-c4cc(N5CCOCC5)cc(=O)[nH]4)c2S3)cn1 (stereo not drawn) [Example 1-12-76]
10 | 100 to 500 | COc1ccc(CNc2ccc3c(c2)Cc2cccc(-c4cc(N5CCOCC5)cc(=O)[nH]4)c2O3)nc1 [Example 2-2-42, 6-(7-(((5-Methoxypyridin-2-yl)methyl)amino)-9H-xanthen-4-yl)-4-morpholino pyridin-2(1H)-one]
11 | < 100 | O=c1cc(N2CCOCC2)cc(-c2cccc3c2Sc2ccc(NC4CCCN(Cc5ccncc5)C4)cc2S3)[nH]1 (stereo not drawn) [Example 1-24-4, 4-Morpholino-6-(7-((1-(pyridin-4-ylmethyl)piperidin-3-yl)amino)thianthren-1-yl)pyridin-2 (1H)-one]
12 | 100 to 500 | Cc1cccc(C(CCN2CCCC2)Nc2ccc3c(c2)Sc2cccc(-c4cc(N5CCOCC5)cc(=O)[nH]4)c2S3)n1 (stereo not drawn) [Example 1-34-6, 6-(7-((1-(6-Methylpyridin-2-yl)-3-(pyrrolidin-1-yl)propyl)amino)thianthren-1-yl)-4-morpholino pyridin-2(1H)-one]
13 | 100 to 500 | CNCC(Nc1ccc2c(c1)Sc1cccc(-c3cc(N4CCOCC4)cc(=O)[nH]3)c1S2)c1cccc(C)n1 (single isomer, unassigned) [Example 1-19-4-1, 6-(7-((2-(Methylamino)-1-(6-methylpyridin-2-yl)ethyl)amino)thianthren-1-yl)-4-morpholinopyridin-2(1H)-one]
14 | 100 to 500 | N#CCC(CN1CCOCC1)Nc1ccc2c(c1)Sc1cccc(-c3cc(N4CCOCC4)cc(=O)[nH]3)c1S2 (stereo not drawn) [Example 9-2, 4-Morpholino-3-((6-(4-morpholino-6-oxo-1,6-dihydropyridin-2-yl)thianthren-2-yl)amino)butanenitrile]
15 | 500 to 2000 | CC(Nc1ccc2c(c1)Sc1cccc(-c3cc(N4CCOCC4)cc(=O)[nH]3)c1S2)C(=O)N1CCOCC1 (stereo not drawn) [Example 1-18-5]
16 | 100 to 500 | CC(C)Nc1cncc(CNc2ccc3c(c2)Cc2cccc(-c4cc(N5CCOCC5)cc(=O)[nH]4)c2O3)c1 [Example 2-2-75, 6-(7-(((5-(Isopropylamino)pyridin-3-yl)methyl)amino)-9H-xanthen-4-yl)-4-morpholino pyridin-2(1H)-one]
17 | 100 to 500 | Cc1cccc(C(CN)Nc2ccc3c(c2)Sc2cccc(-c4cc(N5CCOCC5)cc(=O)[nH]4)c2S3)n1 (stereo not drawn) [Example 1-19-2, 6-(7-((2-Amino-1-(6-methylpyridin-2-yl)ethyl)amino)thianthren-1-yl)-4-morpholinopyridin-2(1H)-one]

Row | IC50 [nM] | Compound
18 | 100 to 500 | O=c1cc(N2CCOCC2)cc(-c2cccc3c2Sc2ccc(NC4CCN(C5CCOC5)C4)cc2S3)[nH]1 (stereo not drawn) [Example 1-24-14, 4-Morpholino-6-(7-((1-(tetrahydrofuran-3-yl)pyrrolidin-3-yl)amino)thianthren-1-yl)pyridin-2 (1H)-one]
19 | 100 to 500 | COc1cc(CNc2ccc3c(c2)Cc2cccc(-c4cc(N5CCOCC5)cc(=O)[nH]4)c2O3)ccn1 [Example 2-22-1, 6-(7-(((2-methoxypyridin-4-yl)methyl)amino)-9H-xanthen-4-yl)-4-morpholinopyridin-2(1H)-one]
20 | 100 to 500 | COc1ncccc1CNc1ccc2c(c1)Cc1cccc(-c3cc(N4CCOCC4)cc(=O)[nH]3)c1O2 [Example 2-13-12, 6-(7-(((2-Methoxypyridin-3-yl)methyl)amino)-9H-xanthen-4-yl)-4-morpholino pyridin-2(1H)-one]
21 | 100 to 500 | CCCC(Nc1ccc2c(c1)Cc1cccc(-c3cc(N4CCOCC4)cc(=O)[nH]3)c1O2)c1cncc(OC)c1 (stereo not drawn) [Example 2-14-17, 6-(7-((1-(5-Methoxypyridin-3-yl)butyl)amino)-9H-xanthen-4-yl)-4-morpholino pyridin-2(1H)-one]
22 | 100 to 500 | O=c1cc(N2CCOCC2)cc(-c2cccc3c2Oc2ccc(NC4CCN(CCc5ccccc5)C4)cc2C3)[nH]1 (stereo not drawn) [Example 2-19-7, 4-Morpholino-6-(7-((1-phenethylpyrrolidin-3-yl)amino)-9H-xanthen-4-yl)pyridin-2(1H)-one]
23 | < 100 | Cc1ccc(C(CCN2CCOCC2)Nc2ccc3c(c2)Sc2cccc(-c4cc(N5CCOCC5)cc(=O)[nH]4)c2S3)nc1 (single isomer, unassigned) [Example 1-51-7, 6-(7-((1-(5-Methylpyridin-2-yl)-3-morpholinopropyl)amino)thianthren-1-yl)-4-morpholino pyridin-2(1H)-one]
24 | < 100 | O=c1cc(N2CCOCC2)cc(-c2cccc3c2Sc2ccc(NC4CCN(Cc5cccnc5)C4)cc2S3)[nH]1 (stereo not drawn) [Example 1-24-11, 4-Morpholino-6-(7-((1-(pyridin-3-ylmethyl)pyrrolidin-3-yl)amino)thianthren-1-yl)pyridin-2 (1H)-one]
25 | 100 to 500 | Cn1cc(-c2cncc(CNc3ccc4c(c3)Sc3cccc(-c5cc(N6CCOCC6)cc(=O)[nH]5)c3S4)c2)cn1 [Example 1-12-22, 6-(7-(((5-(1-Methyl-1H-pyrazol-4-yl)pyridin-3-yl)methyl)amino)thianthren-1-yl)-4-morpholino pyridin-2 (1H)-one]
26 | 100 to 500 | O=c1cc(N2CCOCC2)cc(-c2cccc3c2Oc2ccc(NC4CCN(CC(F)(F)F)CC4)cc2C3)[nH]1 [Example 2-34, 4-Morpholino-6-(7-((1-(2,2,2-trifluoroethyl)piperidin-4-yl)amino)-9H-xanthen-4-yl)pyridin-2(1H)-one]
27 | 100 to 500 | Cc1ccc(CNc2ccc3c(c2)Cc2ccnc(-c4cc(N5CCOCC5)cc(=O)[nH]4)c2O3)nc1 [Example 2-42-2, 6-(7-(((5-Methylpyridin-2-yl)methyl)amino)-5H-chromeno[2,3-c]pyridin-1-yl)-4-morpholinopyridin-2(1H)-one]
28 | < 100 | COCCN1CCC(C(Nc2ccc3c(c2)Sc2cccc(-c4cc(N5CCOCC5)cc(=O)[nH]4)c2S3)c2ccc(C)cn2)CC1 (stereo not drawn) [Example 1-56-7, 6-(7-(((1-(2-Methoxyethyl)piperidin-4-yl)(5-methylpyridin-2-yl)methyl)amino)thianthren-1-yl)-4-morpholino pyridin-2(1H)-one]
29 | 100 to 500 | Cc1ncsc1CNc1ccc2c(c1)Cc1cccc(-c3cc(N4CCOCC4)cc(=O)[nH]3)c1O2 [Example 2-13-2, 6-(7-(((4-Methylthiazol-5-yl)methyl)amino)-9H-xanthen-4-yl)-4-morpholino pyridin-2(1H)-one]
30 | 100 to 500 | Cc1cncc(CNc2ccc3c(c2)Sc2cccc(-c4cc(N5CCOCC5)cc(=O)[nH]4)c2S3)n1 [Example 1-12-60, 6-(7-(((6-Methylpyrazin-2-yl)methyl)amino)thianthren-1-yl)-4-morpholino pyridin-2(1H)-one]
31 | < 100 | O=c1cc(N2CCOCC2)cc(-c2cccc3c2Oc2ccc(NCc4cnc5c(c4)OCCO5)cc2C3)[nH]1 [Example 2-2-29, 6-(7-(((2,3-Dihydro-[1,4]dioxino[2,3-b]pyridin-7-yl)methyl)amino)-9H-xanthen-4-yl)-4-morpholino pyridin-2 (1H)-one]
32 | 100 to 500 | O=c1cc(N2CCOCC2)cc(-c2cccc3c2Oc2ccc(NC4CCN(Cc5cc(C6CC6)ccn5)CC4)cc2C3)[nH]1 [Example 2-28-30, 6-(7-((1-((4-Cyclopropylpyridin-2-yl)methyl)piperidin-4-yl)amino)-9H-xanthen-4-yl)-4-morpholino pyridin-2(1H)-one]
33 | 500 to 2000 | CC(CN1CCNCC1)Nc1ccc2c(c1)Sc1cccc(-c3cc(N4CCOCC4)cc(=O)[nH]3)c1S2 (stereo not drawn) [Example 1-14, 4-Morpholino-6-(7-((1-(piperazin-1-yl)propan-2-yl)amino)thianthren-1-yl)pyridin-2(1H)-one]
